Source: patent publication US20190048016A1, “SUBSTITUTED BRIDGED UREA ANALOGS AS SIRTUIN MODULATORS” (GlaxoSmithKline Intellectual Property(No.2)Limited, priority 2014, published 2019)

Target: T1, SIRT1 (Homo sapiens, UniProt Q96EB6)
T1 sequence (Q96EB6 1-747): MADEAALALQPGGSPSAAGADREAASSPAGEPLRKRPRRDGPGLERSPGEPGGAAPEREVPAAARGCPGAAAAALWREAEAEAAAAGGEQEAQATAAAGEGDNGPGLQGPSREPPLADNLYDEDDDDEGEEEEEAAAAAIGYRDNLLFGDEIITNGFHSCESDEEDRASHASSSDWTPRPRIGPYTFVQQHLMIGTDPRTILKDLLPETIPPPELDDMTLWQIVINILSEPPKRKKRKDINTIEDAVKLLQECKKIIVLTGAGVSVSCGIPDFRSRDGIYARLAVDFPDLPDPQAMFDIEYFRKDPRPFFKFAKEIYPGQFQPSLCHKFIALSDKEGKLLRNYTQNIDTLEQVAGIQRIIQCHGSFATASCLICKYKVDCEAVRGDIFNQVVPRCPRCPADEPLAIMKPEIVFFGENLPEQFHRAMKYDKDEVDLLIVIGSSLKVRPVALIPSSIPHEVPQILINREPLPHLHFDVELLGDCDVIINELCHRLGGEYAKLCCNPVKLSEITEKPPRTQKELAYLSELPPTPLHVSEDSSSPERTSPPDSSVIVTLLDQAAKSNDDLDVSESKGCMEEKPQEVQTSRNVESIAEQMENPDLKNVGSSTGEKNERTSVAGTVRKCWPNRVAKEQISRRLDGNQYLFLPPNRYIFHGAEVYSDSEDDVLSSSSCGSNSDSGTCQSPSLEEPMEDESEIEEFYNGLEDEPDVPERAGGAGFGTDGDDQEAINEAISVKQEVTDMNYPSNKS
Assay: Trp mass spectrometry assay of SIRT1 activation (deacetylation of Ac-R-H-K-K(Ac)-W-NH2 peptide, OAADPR formation)
Assay type: biochemical
Conditions: Trp peptide 0.5 μM, 120 μM βNAD+, 10 nM SIRT1, 25 min, 25° C.; for Emax: 25 min, read-out: TRP MAX RESP (percent maximum fold activation relative to control = 100%)
Summary of the method: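 10 nM His-tagged SIRT1 (E. coli expressed) with 0.5 μM Ac-RHKK(Ac)W-NH2 and 120 μM βNAD+, 25 min at 25° C, HEPES pH 7.5, […]; formic acid stop. OAADPR or deacetylated peptide measured by mass spectrometry; EC1.5 = concentration giving 150% activity versus DMSO control; maximum activation also reported.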

Emax [%] | TRP Activity (EC1.5, concentration of compound required to increase SIRT1 activity by 50% over control) | TRP MAX RESP (percent maximum fold activation relative to control = 100%) | SMILES
≥ 150 | A (EC1.5<1 μM) | – | O=C(Nc1cncc(F)c1)N1c2nc(-c3ccnc(C(F)(F)F)c3)ccc2N2CCC[C@H]1C2 [Example 2, (9S)-N-(5-fluoropyridin-3-yl)-2-(2-(trifluoromethyl)pyridin-4-yl)-8,9-dihydro-6H-5,9-methanopyrido[2,3-b][1,4]diazocine-10(7H)-carboxamide]
≥ 150 | A (EC1.5<1 μM) | – | C[C@@H](NC(=O)c1ccc2c(n1)N(C(=O)Nc1cnc(OC[C@H](O)CO)cn1)[C@H]1CCCN2C1)C(F)(F)F [Example 49, (9S)-N10-(5-((R)-2,3-dihydroxypropoxy)pyrazin-2-yl)-N2-((R)-1,1,1-trifluoropropan-2-yl)-8,9-dihydro-6H-5,9-methanopyrido[2,3-b][1,4]diazocine-2,10(7H)-dicarboxamide]
≥ 150 | A (EC1.5<1 μM) | – | O=C(Nc1cnccn1)N1c2nc(N3CCCC(C(F)(F)F)C3)ccc2N2CCC[C@H]1C2 (single isomer, unassigned) [Example 30]
≥ 150 | A (EC1.5<1 μM) | – | O=C(NCC(F)(F)F)c1nc2c(cc1Cl)N1CCC[C@@H](C1)N2C(=O)Nc1ccccn1 [Example 38, (9S)-3-chloro-N10-(pyridin-2-yl)-N2-(2,2,2-trifluoroethyl)-8,9-dihydro-6H-5,9-methanopyrido[2,3-b][1,4]diazocine-2,10(7H)-dicarboxamide]
≥ 150 | A (EC1.5<1 μM) | – | Cc1cc(-c2ccc3c(n2)N(C(=O)Nc2ccccn2)[C@H]2CCCN3C2)ccn1 [Example 4, (9S)-2-(2-methylpyridin-4-yl)-N-(pyridin-2-yl)-8,9-dihydro-6H-5,9-methanopyrido[2,3-b][1,4]diazocine-10(7H)-carboxamide]
≥ 150 | A (EC1.5<1 μM) | – | O=C(Nc1ccc(F)cn1)N1c2nc(N3CCCC(C(F)(F)F)C3)ccc2N2CCC[C@H]1C2 (single isomer, unassigned) [Example 24]
≥ 150 | A (EC1.5<1 μM) | – | O=C(Nc1cccnn1)N1c2nc(-c3ccnc(C(F)(F)F)c3)ccc2N2CCC[C@H]1C2 [Example 6, (9S)-N-(pyridazin-3-yl)-2-(2-(trifluoromethyl)pyridin-4-yl)-8,9-dihydro-6H-5,9-methanopyrido[2,3-b][1,4]diazocine-10(7H)-carboxamide]

Second part, the molecule before the results:

SMILES | Emax [%] | TRP Activity (EC1.5, concentration of compound required to increase SIRT1 activity by 50% over control) | TRP MAX RESP (percent maximum fold activation relative to control = 100%)
Cc1cc(-c2ccc3c(n2)N(C(=O)Nc2nc(C)c(C)s2)[C@H]2CCCN3C2)ccn1 [Example 19, (9S)-N-(4,5-dimethylthiazol-2-yl)-2-(2-methylpyridin-4-yl)-8,9-dihydro-6H-5,9-methanopyrido[2,3-b][1,4]diazocine-10(7H)-carboxamide] | ≥ 150 | A (EC1.5<1 μM) | –
O=C(Nc1ccnc(OC[C@H](O)CO)n1)N1c2nc(-c3cccc(C(F)(F)F)c3)c(Cl)cc2N2CCC[C@H]1C2 [Example 88, (9S)-3-chloro-N-(2-((R)-2,3-dihydroxypropoxy)pyrimidin-4-yl)-2-(3-(trifluoromethyl)phenyl)-8,9-dihydro-6H-5,9-methanopyrido[2,3-b][1,4]diazocine-10(7H)-carboxamide] | ≥ 150 | A (EC1.5<1 μM) | –
Cc1ccc2c(NC(=O)N3c4nc(C(=O)NC(CO)C(F)(F)F)ccc4N4CCC[C@H]3C4)n[nH]c2n1 (single isomer, unassigned) [Example 46] | – | A (EC1.5<1 μM) | A (Fold activation≥150%)
O=C(Nc1cc(OC[C@@H](O)CO)ncn1)N1c2nc(-c3cccc(C(F)(F)F)c3)c(Cl)cc2N2CCC[C@H]1C2 [Example 86] | ≥ 150 | A (EC1.5<1 μM) | –
O=C(Nc1cc(OC[C@H](O)CO)ncn1)N1c2nc(-c3cccc(C(F)(F)F)c3)c(Cl)cc2N2CCC[C@H]1C2 [Example 70, (9S)-3-chloro-N-(6-((R)-2,3-dihydroxypropoxy)pyrimidin-4-yl)-2-(3-(trifluoromethyl)phenyl)-8,9-dihydro-6H-5,9-methanopyrido[2,3-b][1,4]diazocine-10(7H)-carboxamide] | ≥ 150 | B (EC1.5 1-25 μM) | –
Cc1cc(-c2ccc3c(n2)N(C(=O)Nc2cccnc2)[C@H]2CCCN3C2)ccn1 [Example 32, (9S)-2-(2-methylpyridin-4-yl)-N-(pyridin-3-yl)-8,9-dihydro-6H-5,9-methanopyrido[2,3-b][1,4]diazocine-10(7H)-carboxamide] | ≥ 150 | A (EC1.5<1 μM) | –
O=C(Nc1ccnc(OC[C@@H](O)CO)c1)N1c2nc(-c3cccc(C(F)(F)F)c3)c(Cl)cc2N2CCC[C@H]1C2 [Example 83, (9S)-3-chloro-N-(2-((S)-2,3-dihydroxypropoxy)pyridin-4-yl)-2-(3-(trifluoromethyl)phenyl)-8,9-dihydro-6H-5,9-methanopyrido[2,3-b][1,4]diazocine-10(7H)-carboxamide] | ≥ 150 | A (EC1.5<1 μM) | –
Cc1cc(-c2ccc3c(n2)N(C(=O)Nc2ccncn2)[C@H]2CCCN3C2)ccn1 [Example 12, (9S)-2-(2-methylpyridin-4-yl)-N-(pyrimidin-4-yl)-8,9-dihydro-6H-5,9-methanopyrido[2,3-b][1,4]diazocine-10(7H)-carboxamide] | ≥ 150 | A (EC1.5<1 μM) | –
Cc1ccc2c(NC(=O)N3c4nc(C(=O)NC(CO)C(F)(F)F)ccc4N4CCC[C@H]3C4)n[nH]c2n1 (single isomer, unassigned) [Example 45] | ≥ 150 | B (EC1.5 1-25 μM) | –
Cc1ccc2c(NC(=O)N3c4nc(C(=O)N[C@H](C)C(F)(F)F)ccc4N4CCC[C@H]3C4)n[nH]c2n1 [Example 43, (9S)-N10-(6-methyl-1H-pyrazolo[3,4-b]pyridin-3-yl)-N2-((R)-1,1,1-trifluoropropan-2-yl)-8,9-dihydro-6H-5,9-methanopyrido[2,3-b][1,4]diazocine-2,10(7H)-dicarboxamide] | ≥ 150 | A (EC1.5<1 μM) | –
O=C(Nc1cncc(OC[C@@H](O)CO)c1)N1c2nc(-c3cccc(C(F)(F)F)c3)c(Cl)cc2N2CCC[C@H]1C2 [Example 80, (9S)-3-chloro-N-(5-((S)-2,3-dihydroxypropoxy)pyridin-3-yl)-2-(3-(trifluoromethyl)phenyl)-8,9-dihydro-6H-5,9-methanopyrido[2,3-b][1,4]diazocine-10(7H)-carboxamide] | ≥ 150 | A (EC1.5<1 μM) | –
Cc1ccc2c(NC(=O)N3c4nc(C(=O)NC5CC5(F)F)ccc4N4CCC[C@H]3C4)n[nH]c2n1 (single isomer, unassigned) [Example 53] | – | A (EC1.5<1 μM) | –
Cc1cc(-c2ccc3c(n2)N(C(=O)Nc2cncc(F)c2)[C@H]2CCCN3C2)ccn1 [Example 5, (9S)-N-(5-fluoropyridin-3-yl)-2-(2-methylpyridin-4-yl)-8,9-dihydro-6H-5,9-methanopyrido[2,3-b][1,4]diazocine-10(7H)-carboxamide] | ≥ 150 | A (EC1.5<1 μM) | –
Cc1cc(-c2ccc3c(n2)N(C(=O)Nc2ccc4nn(C)cc4c2)[C@H]2CCCN3C2)ccn1 [Example 15, (9S)-N-(2-methyl-2H-indazol-5-yl)-2-(2-methylpyridin-4-yl)-8,9-dihydro-6H-5,9-methanopyrido[2,3-b][1,4]diazocine-10(7H)-carboxamide] | ≥ 150 | A (EC1.5<1 μM) | –
O=C(Nc1ncc(OC[C@H](O)CO)cn1)N1c2nc(-c3cccc(C(F)(F)F)c3)c(Cl)cc2N2CCC[C@H]1C2 [Example 89, (9S)-3-chloro-N-(5-((R)-2,3-dihydroxypropoxy)pyrimidin-2-yl)-2-(3-(trifluoromethyl)phenyl)-8,9-dihydro-6H-5,9-methanopyrido[2,3-b][1,4]diazocine-10(7H)-carboxamide] | ≥ 150 | A (EC1.5<1 μM) | –
